The structures appear in SMILES notation.

A word on the Ki: it is a dissociation constant, usually derived from enzyme kinetics or from competition with a known ligand. For orientation: melting point means the temperature of the solid-liquid transition.

Data set [1] addresses σ1R (Homo sapiens, UniProt Q99720). Description: In vitro σ1R binding assay (radioligand displacement, NIMH PDSP). The settings on record: read-out: In Vitro σ1R Affinity (Ki). From the text:
Online Molinspiration and Osiris property explorer were used to calculate/predict drug-like molecular properties for the target compounds. These studies involved retrieving the σ1R crystal structure (5HK1) with embedded ligand (PD144418), preparation (e.g., H2O and ligand removal), and docking the target molecules via the PyRx and AutoDock Vina suite. […] Synthetically, a variety of approaches for obtaining acyl ureas were reviewed and the most feasible conditions were attempted with limited success—our goal was to obtain our compounds using the shortest and most cost-effective approach. […] We therefore slightly modified Stokes’ conditions by preparing the N-(phenoxycabonyl)benzamide intermediate from phenol and benzoyl isocynate. Coupling the intermediate with amines or amides or thioamides via simple nucleophilic displacement afforded our series of N-acyl ureas plus N-acyl thioureas (Table 1) in good yields (>64%). To confirm our pharmacological assumptions regarding these molecules behaving like PD144418, the compounds were sent to the National Institute of Mental Health’s Psychoactive Drug Screening Program and evaluated in radioligand displacement assays to determine their in vitro σ1R affinities or Ki values.
Computational (kcal/mol) versus in vitro (μM, from the National Institute of Mental Health Psychoactive Drug Screening Program or NIMH-PDSP [https://pdsp.unc.edu/pdspweb/ (accessed 28 February 2023)] σ1R binding affinity data are illustrated in Table 4.
Sigma-1 binding affinity experiments (Ki determinations) were conducted at the National Institute of Mental Health’s Psychoactive Drug Screening Program (NIMH PDSP). Sigma-1 receptor binding assay protocol details (radioligand displacement conditions, etc.) are available at https://pdsp.unc.edu/pdspweb/content/PDSP%20Protocols%20II%202013-03-28.pdf (accessed 28 February 2023).
For orientation: Displacement assays read how much labelled ligand stays bound in the presence of the test substance.

Sequence of σ1R (Q99720 whole entry, species assumed): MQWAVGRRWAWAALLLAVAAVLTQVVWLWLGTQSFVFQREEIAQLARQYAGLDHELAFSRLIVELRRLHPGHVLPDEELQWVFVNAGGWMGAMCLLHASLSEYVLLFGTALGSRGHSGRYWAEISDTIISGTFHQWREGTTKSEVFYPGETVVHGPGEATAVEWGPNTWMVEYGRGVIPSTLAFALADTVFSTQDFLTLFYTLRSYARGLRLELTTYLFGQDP

`Cc1cc(C)nc(NC(=O)NC(=O)c2ccccc2)n1` [Compound 13, N-((4,6-Dimethylpyrimidin-2-yl)carbamoyl)benzamide] displayed a melting point of 183 to 185 °C. Moreover, the Ki in data set [1] was more than 10 µM.

On to `O=C(NC(=O)N1CCN(c2ncccn2)CC1)c1ccccc1` [Compound 5, N-Benzoyl-4-(pyrimidin-2-yl)piperazine-1-carboxamide], for which the melting point fell in the range of 145 to 147 °C. Besides, the Ki in data set [1] was more than 10 µM.

Consider `Cc1ccc(N2CCN(C(=O)NC(=O)c3ccccc3)CC2)cc1` [Compound 8, N-Benzoyl-4-(p-tolyl)piperazine-1-carboxamide], for which the melting point was in the range of 158 to 160 °C. In data set [1], the Ki is more than 10 µM.

In turn, `O=C(NC(=O)c1ccccc1)NC(=S)c1ccccn1` [Compound 3, N-((Pyridine-2-carbonothioyl)carbamoyl)benzamide] returned a melting point of 180 to 182 °C. The inhibition constant (Ki) in data set [1] is more than 10 µM.

As to `O=C(NC(=O)N1CCC(O)CC1)c1ccccc1` [Compound 7], the melting point was 170 to 172 °C. Besides, in data set [1], the Ki was more than 10 µM.

Turning to `CC(C)(C)OC(=O)N1CCC(NC(=O)NC(=O)c2ccccc2)CC1` [Compound 9, Tert-butyl 4-(3-benzoylureido)piperidine-1-carboxylate], the melting point was in the range of 164 to 166 °C. Moreover, in data set [1], the Ki is more than 10 µM.

Consider `Cc1cc(NC(=O)NC(=O)c2ccccc2)no1` [Compound 1, N-((5-Methylisoxazol-3-yl)carbamoyl)benzamide], for which, in data set [1], the Ki was more than 10 µM.

Compound `O=C(NC(=O)c1ccccc1)Nc1ccc2[nH]ccc2c1` [Compound 2] gave a melting point of 220 to 223 °C. The Ki in data set [1] is more than 10 µM.

For the compound `O=C(NC(=S)Nc1cc2ccccc2cn1)c1ccccc1` [Compound 16, N-(Isoquinolin-3-ylcarbamothioyl)benzamide], the melting point is 162 to 165 °C. In addition, the Ki in data set [1] was more than 10 µM.

`O=C(NC(=O)c1ccccc1)Nc1cc2ccccc2cn1` [Compound 15, N-(Isoquinolin-3-ylcarbamoyl)benzamide]: the melting point is 237 to 238 °C. In data set [1], the Ki was more than 10 µM.

Take `COc1cc(C(=S)NC(=O)NC(=O)c2ccccc2)ccc1O` [Compound 12, N-((4-Hydroxy-3-methoxyphenylcarbonothioyl)carbamoyl) benzamide]: the melting point lay in the range of 176 to 177 °C. Also, the Ki in data set [1] was determined as 9.54 µM.

In turn, `Cc1c(C)c2c(c(C)c1O)CCC(C)(C(=O)NC(=O)NC(=O)c1ccccc1)O2` (stereo not shown) [Compound 11, N-(Benzoylcarbamoyl)-6-hydroxy-2,5,7,8-tetramethylchromane-2-carboxamide] came in with a melting point of 155 to 157 °C. For the same compound, the Ki in data set [1] is more than 10 µM.

In turn, `Cc1cc2cc(NC(=O)NC(=O)c3ccccc3)ccc2[nH]1` [Compound 4, N-((2-Methyl-1H-indol-5-yl)carbamoyl)benzamide] came in with a melting point of 209 to 211 °C. Further, the Ki in data set [1] is more than 10 µM.

Turning to `O=C(NC(=O)N1CCN(c2ccncc2)CC1)c1ccccc1` [Compound 6, N-Benzoyl-4-(pyridin-4-yl)piperazine-1-carboxamide], the melting point was 161 to 163 °C. In data set [1], the Ki is more than 10 µM.

For `O=C(NC(=O)c1ccccc1)Nc1cnc2ccccc2c1` [Compound 14, N-(Quinolin-3-ylcarbamoyl)benzamide], the melting point lay in the range of 233 to 236 °C. Moreover, the Ki in data set [1] is more than 10 µM.

Consider `O=C(NC(=O)c1ccccc1)Nc1nc2ccccc2o1` [Compound 10, N-(Benzo[d]oxazol-2-ylcarbamoyl)benzamide], for which the melting point lay in the range of 180 to 182 °C. In data set [1], the Ki turned out to be 2.18 µM.

These data come from PMC10005056, “Design and Synthesis of New Acyl Urea Analogs as Potential σ1R Ligands” (Molecules, 2023).
